# Measurements taken from patent US8883827B2, “Azole derivatives as WTN pathway inhibitors” (Oslo University Hospital HF, priority 2009, dated 2014).
# How the values were obtained:
# SW480 cells = assay: Illumina microarray gene expression analysis; type: cell-based; conditions: x at 25 μM only
# Experimental: A microarray analysis using an Illumina® array was performed in triplicate to investigate differential gene expression in cells treated with a Wnt pathway inhibitor. […] In vitro transcription reactions were incubated overnight (14 hr). Labeled cRNA was hybridized to Illumina® Human-6 v3 BeadChips (Illumina, San Diego, Calif.) at 58° C. overnight, according to the Illumina® Whole-Genome Gene Expression Protocol for BeadStation (Doc. #11226030.rev.C, Illumina Inc.). The hybridized BeadChip was stained with streptavidin-Cy3 (Amersham™, PA43001) for visualization and scanned with an Illumina® BeadArray Reader. The scanned images were imported into BeadStudio 3.1.3.0 (Illumina Inc) for extraction and quality control. A criterion of 0.5-fold change in expression was applied to the analysis. […] A list of differentially expressed genes of interest is given below in tables 1 and 2. […] Many known Wnt target genes (column 3) were influenced in treated cells. Some genes were influenced that are also affected in Ls174T colorectal cancer cells expressing an inducible dominant negative form of TCF-4 (column 4) (van de Wetering et al., Mol. Cell. Biol. (2008) 28(8), p. 2732-44). Other influenced genes that are important for cell cycle control and other genes correlated to regulated canonical Wnt signaling are also shown. The degree of modulation (column 5) is an indication of the degree of change between the non-treated and compound No. 1 treated samples.
# MLK1(h) = target: T1, MLK1(h) (Homo sapiens, UniProt P80192); assay: Kinase screen; type: biochemical; conditions: 0.1% DMSO control = 100%
# T1 construct: purchased Millipore (KinaseProfiler service)
# T1 sequence (P80192 whole entry): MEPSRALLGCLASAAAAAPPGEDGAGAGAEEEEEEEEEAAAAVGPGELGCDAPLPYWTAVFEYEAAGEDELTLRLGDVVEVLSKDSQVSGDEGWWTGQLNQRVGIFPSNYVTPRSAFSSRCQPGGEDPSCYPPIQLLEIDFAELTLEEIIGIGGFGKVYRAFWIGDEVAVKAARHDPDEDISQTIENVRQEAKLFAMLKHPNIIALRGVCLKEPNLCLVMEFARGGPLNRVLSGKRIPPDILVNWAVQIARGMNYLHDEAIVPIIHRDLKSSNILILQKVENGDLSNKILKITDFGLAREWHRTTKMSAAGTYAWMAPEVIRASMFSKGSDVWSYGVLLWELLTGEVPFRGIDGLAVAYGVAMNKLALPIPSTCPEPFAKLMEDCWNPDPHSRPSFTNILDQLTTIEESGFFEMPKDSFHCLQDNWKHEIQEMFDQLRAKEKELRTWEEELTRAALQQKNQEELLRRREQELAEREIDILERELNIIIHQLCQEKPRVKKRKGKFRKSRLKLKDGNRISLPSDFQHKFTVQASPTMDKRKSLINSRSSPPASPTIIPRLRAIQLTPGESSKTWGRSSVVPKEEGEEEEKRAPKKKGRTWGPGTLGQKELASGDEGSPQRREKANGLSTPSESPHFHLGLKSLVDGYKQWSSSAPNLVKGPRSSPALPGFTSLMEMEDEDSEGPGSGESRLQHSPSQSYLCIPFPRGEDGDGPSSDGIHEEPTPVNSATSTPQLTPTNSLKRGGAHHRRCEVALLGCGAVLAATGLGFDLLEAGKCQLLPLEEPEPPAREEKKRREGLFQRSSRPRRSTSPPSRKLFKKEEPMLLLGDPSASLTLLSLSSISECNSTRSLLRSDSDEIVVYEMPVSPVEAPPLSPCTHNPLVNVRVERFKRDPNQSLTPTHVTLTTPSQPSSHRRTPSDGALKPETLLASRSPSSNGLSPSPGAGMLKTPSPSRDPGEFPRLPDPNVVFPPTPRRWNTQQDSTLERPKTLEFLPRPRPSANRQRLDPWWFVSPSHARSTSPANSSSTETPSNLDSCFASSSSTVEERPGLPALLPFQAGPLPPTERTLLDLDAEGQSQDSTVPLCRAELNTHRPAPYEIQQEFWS
# c-RAF(h) = target: T2, c-RAF(h) (Homo sapiens, UniProt P04049); assay: Kinase screen; type: biochemical; conditions: 0.1% DMSO control = 100%
# T2 construct: purchased Millipore (KinaseProfiler service)
# T2 sequence (P04049 whole entry): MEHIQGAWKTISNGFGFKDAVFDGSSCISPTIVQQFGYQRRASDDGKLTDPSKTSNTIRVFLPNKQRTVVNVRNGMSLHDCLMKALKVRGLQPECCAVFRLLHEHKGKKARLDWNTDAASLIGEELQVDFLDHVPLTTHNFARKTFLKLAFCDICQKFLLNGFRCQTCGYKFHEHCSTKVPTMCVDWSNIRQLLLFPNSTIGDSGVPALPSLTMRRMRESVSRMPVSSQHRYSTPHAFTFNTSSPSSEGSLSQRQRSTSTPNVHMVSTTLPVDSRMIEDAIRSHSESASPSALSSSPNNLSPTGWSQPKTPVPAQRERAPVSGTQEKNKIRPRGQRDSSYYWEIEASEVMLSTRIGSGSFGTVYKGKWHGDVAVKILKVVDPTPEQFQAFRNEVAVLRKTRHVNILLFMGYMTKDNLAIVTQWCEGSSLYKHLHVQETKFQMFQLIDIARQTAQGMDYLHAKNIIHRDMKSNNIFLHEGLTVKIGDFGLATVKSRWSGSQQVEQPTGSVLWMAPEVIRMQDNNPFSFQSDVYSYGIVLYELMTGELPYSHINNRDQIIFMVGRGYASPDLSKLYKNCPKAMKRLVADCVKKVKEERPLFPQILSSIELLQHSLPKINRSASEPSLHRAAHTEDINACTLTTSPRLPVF
# PTP MEG1(h) = target: T3, PTP MEG1(h) (Homo sapiens, UniProt P29074); assay: Phosphatase screen; type: biochemical; conditions: 0.1% DMSO control = 100%
# T3 construct: purchased Millipore (KinaseProfiler service)
# T3 sequence (P29074 whole entry): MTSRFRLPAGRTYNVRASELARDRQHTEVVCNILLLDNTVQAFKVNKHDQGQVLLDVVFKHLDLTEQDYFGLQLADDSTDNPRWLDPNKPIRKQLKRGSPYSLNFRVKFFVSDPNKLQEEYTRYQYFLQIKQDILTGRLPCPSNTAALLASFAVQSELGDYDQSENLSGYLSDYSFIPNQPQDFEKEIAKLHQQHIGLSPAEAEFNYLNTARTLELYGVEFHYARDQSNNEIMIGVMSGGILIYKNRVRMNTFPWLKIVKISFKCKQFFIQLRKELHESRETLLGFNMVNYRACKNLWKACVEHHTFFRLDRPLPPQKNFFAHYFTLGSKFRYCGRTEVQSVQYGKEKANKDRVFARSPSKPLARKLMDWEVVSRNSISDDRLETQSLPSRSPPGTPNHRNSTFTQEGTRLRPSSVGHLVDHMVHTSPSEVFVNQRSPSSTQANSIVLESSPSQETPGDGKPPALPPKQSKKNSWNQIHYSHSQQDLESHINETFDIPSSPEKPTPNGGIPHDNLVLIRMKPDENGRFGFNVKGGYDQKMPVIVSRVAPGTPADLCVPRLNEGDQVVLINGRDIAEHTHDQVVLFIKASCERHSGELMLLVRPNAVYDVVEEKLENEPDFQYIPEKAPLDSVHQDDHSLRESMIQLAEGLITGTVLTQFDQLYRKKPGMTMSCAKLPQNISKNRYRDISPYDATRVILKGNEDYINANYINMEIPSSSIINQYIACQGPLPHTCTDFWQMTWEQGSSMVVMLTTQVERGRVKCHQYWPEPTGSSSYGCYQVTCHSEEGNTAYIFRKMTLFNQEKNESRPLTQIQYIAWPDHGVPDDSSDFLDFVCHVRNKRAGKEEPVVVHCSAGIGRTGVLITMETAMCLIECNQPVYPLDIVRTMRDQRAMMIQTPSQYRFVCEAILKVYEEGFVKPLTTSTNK
# PTPb(h) = target: T4, PTPb(h) (Homo sapiens, UniProt P23467); assay: Phosphatase screen; type: biochemical; conditions: 0.1% DMSO control = 100%
# T4 construct: purchased Millipore (KinaseProfiler service)
# T4 sequence (P23467 23-1997): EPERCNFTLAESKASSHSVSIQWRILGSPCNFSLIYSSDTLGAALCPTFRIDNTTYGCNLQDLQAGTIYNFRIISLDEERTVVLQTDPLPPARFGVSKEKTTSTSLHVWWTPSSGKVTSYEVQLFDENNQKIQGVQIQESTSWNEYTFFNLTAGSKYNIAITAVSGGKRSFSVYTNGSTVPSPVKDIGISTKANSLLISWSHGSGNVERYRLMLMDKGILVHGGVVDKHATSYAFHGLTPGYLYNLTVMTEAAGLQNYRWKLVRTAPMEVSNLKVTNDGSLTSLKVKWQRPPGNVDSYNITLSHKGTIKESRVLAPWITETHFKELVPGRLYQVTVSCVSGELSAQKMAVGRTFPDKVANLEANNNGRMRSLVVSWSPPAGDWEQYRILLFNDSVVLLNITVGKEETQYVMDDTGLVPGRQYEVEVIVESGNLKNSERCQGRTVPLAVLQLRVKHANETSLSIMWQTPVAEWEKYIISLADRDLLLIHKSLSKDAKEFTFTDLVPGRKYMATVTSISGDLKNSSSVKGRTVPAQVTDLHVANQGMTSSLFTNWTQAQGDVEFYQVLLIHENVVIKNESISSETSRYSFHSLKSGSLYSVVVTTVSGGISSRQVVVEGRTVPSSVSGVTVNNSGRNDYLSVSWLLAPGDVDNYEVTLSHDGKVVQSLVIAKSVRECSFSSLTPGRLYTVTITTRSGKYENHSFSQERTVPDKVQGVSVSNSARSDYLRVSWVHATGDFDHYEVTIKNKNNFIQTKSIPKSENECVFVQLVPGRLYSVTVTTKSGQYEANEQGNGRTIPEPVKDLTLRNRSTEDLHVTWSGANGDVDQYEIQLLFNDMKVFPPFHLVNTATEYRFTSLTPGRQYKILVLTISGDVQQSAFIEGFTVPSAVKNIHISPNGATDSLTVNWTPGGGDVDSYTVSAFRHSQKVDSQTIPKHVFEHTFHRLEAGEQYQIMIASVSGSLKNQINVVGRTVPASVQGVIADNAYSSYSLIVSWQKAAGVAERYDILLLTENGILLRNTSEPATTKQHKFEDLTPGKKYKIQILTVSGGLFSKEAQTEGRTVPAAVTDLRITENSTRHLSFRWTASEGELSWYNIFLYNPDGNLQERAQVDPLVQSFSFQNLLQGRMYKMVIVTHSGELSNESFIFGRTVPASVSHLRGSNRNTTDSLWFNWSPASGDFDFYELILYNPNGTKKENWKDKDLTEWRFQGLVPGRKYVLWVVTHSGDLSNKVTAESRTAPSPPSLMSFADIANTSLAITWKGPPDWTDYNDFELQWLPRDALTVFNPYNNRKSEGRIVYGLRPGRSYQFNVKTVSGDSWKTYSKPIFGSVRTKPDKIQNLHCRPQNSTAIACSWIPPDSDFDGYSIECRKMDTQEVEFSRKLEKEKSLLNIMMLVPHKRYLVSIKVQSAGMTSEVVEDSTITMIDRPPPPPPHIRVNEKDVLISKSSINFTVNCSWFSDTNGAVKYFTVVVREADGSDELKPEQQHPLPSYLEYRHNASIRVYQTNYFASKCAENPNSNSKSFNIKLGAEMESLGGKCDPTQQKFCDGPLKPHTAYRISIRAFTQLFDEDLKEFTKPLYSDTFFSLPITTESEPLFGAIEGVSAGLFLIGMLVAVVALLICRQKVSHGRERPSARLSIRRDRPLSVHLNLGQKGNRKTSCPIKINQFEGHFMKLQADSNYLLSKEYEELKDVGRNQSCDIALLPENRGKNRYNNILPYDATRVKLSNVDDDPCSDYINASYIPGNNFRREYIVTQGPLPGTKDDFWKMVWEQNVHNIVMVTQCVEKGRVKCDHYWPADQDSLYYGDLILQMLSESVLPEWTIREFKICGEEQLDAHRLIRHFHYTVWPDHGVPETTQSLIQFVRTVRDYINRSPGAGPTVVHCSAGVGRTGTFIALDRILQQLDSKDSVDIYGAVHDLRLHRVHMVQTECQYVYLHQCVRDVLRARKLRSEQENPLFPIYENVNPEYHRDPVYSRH
smiles,measurement,setting,value
COc1ccc(-n2c(SCc3nc(-c4ccc(C)cc4)no3)nnc2-c2ccncc2)cc1 [Compound 1],Degree of modulation: baculoviral IAP repeat-containing 5,SW480 cells,− (moderate down-regulation (log^2 ratio of between −0.5 and −1.0))
same,Degree of modulation: bone morphogenetic protein 1,SW480 cells,+ (moderate up-regulation (log^2 ratio of between 0.5 and 1.0))
same,Degree of modulation: bone morphogenetic protein 7,SW480 cells,− (moderate down-regulation (log^2 ratio of between −0.5 and −1.0))
same,"Degree of modulation: c-abl oncogene 1, receptor tyrosine kinase",SW480 cells,− (moderate down-regulation (log^2 ratio of between −0.5 and −1.0))
same,Degree of modulation: cell division cycle 25 homolog C (S. pombe),SW480 cells,− (moderate down-regulation (log^2 ratio of between −0.5 and −1.0))
same,Degree of modulation: cell division cycle associated 8,SW480 cells,− (moderate down-regulation (log^2 ratio of between −0.5 and −1.0))
same,Degree of modulation: cyclin B2,SW480 cells,− (moderate down-regulation (log^2 ratio of between −0.5 and −1.0))
same,Degree of modulation: cyclin-dependent kinase 8,SW480 cells,− (moderate down-regulation (log^2 ratio of between −0.5 and −1.0))
same,"Degree of modulation: cyclin-dependent kinase inhibitor 1B (p27, Kip1)",SW480 cells,− (moderate down-regulation (log^2 ratio of between −0.5 and −1.0))
same,"Degree of modulation: cysteine-rich, angiogenic inducer, 61",SW480 cells,−−− (very strong down-regulation (log^2 ratio of between −1.5 and −2))
same,"Degree of modulation: disabled homolog 2, mitogen-responsive phosphoprotein (Drosophila)",SW480 cells,− (moderate down-regulation (log^2 ratio of between −0.5 and −1.0))
same,"Degree of modulation: dynein, axonemal, heavy chain 3",SW480 cells,− (moderate down-regulation (log^2 ratio of between −0.5 and −1.0))
same,"Degree of modulation: dynein, axonemal, heavy chain 5",SW480 cells,+ (moderate up-regulation (log^2 ratio of between 0.5 and 1.0))
same,"Degree of modulation: dynein, light chain, LC8-type 2",SW480 cells,− (moderate down-regulation (log^2 ratio of between −0.5 and −1.0))
same,"Degree of modulation: dynein, light chain, roadblock-type 1",SW480 cells,− (moderate down-regulation (log^2 ratio of between −0.5 and −1.0))
same,Degree of modulation: ephrin-A4,SW480 cells,− (moderate down-regulation (log^2 ratio of between −0.5 and −1.0))
same,Degree of modulation: ephrin-B2,SW480 cells,++ (strong up-regulation (log^2 ratio of between 1.0 and 1.5))
same,"Degree of modulation: epidermal growth factor receptor (erythroblastic leukemia viral (v-erb-b) oncogene homolog, avian)",SW480 cells,+ (moderate up-regulation (log^2 ratio of between 0.5 and 1.0))
same,Degree of modulation: ets variant gene 3,SW480 cells,−− (strong down-regulation (log^2 ratio of between −1.0 and −1.5))
same,Degree of modulation: fibroblast growth factor 20,SW480 cells,− (moderate down-regulation (log^2 ratio of between −0.5 and −1.0))
same,Degree of modulation: forkhead box F1,SW480 cells,+ (moderate up-regulation (log^2 ratio of between 0.5 and 1.0))
same,Degree of modulation: forkhead box M1,SW480 cells,− (moderate down-regulation (log^2 ratio of between −0.5 and −1.0))
same,Degree of modulation: frizzled homolog 2 (Drosophila),SW480 cells,−− (strong down-regulation (log^2 ratio of between −1.0 and −1.5))
same,Degree of modulation: interleukin 8,SW480 cells,++ (strong up-regulation (log^2 ratio of between 1.0 and 1.5))
same,Degree of modulation: low density lipoprotein receptor-related protein 5-like,SW480 cells,+ (moderate up-regulation (log^2 ratio of between 0.5 and 1.0))
same,"Degree of modulation: matrix metallopeptidase 7 (matrilysin, uterine)",SW480 cells,− (moderate down-regulation (log^2 ratio of between −0.5 and −1.0))
same,Degree of modulation: met proto-oncogene (hepatocyte growth factor receptor),SW480 cells,+ (moderate up-regulation (log^2 ratio of between 0.5 and 1.0))
same,Degree of modulation: mitogen-activated protein kinase kinase kinase kinase 1,SW480 cells,− (moderate down-regulation (log^2 ratio of between −0.5 and −1.0))
same,Degree of modulation: nitric oxide synthase 3 (endothelial cell),SW480 cells,+++ (very strong up-regulation (log^2 ratio of between 1.5 and 2))
same,"Degree of modulation: origin recognition complex, subunit 1-like (yeast)",SW480 cells,− (moderate down-regulation (log^2 ratio of between −0.5 and −1.0))
same,Degree of modulation: p53 and DNA damage regulated 1,SW480 cells,− (moderate down-regulation (log^2 ratio of between −0.5 and −1.0))
same,Degree of modulation: paired box 6,SW480 cells,− (moderate down-regulation (log^2 ratio of between −0.5 and −1.0))
same,Degree of modulation: paired related homeobox 2,SW480 cells,− (moderate down-regulation (log^2 ratio of between −0.5 and −1.0))
same,Degree of modulation: patched homolog 1 (Drosophila),SW480 cells,− (moderate down-regulation (log^2 ratio of between −0.5 and −1.0))
same,Degree of modulation: pituitary tumor-transforming 1,SW480 cells,− (moderate down-regulation (log^2 ratio of between −0.5 and −1.0))
same,"Degree of modulation: plasminogen activator, urokinase",SW480 cells,+ (moderate up-regulation (log^2 ratio of between 0.5 and 1.0))
same,"Degree of modulation: plasminogen activator, urokinase receptor",SW480 cells,+ (moderate up-regulation (log^2 ratio of between 0.5 and 1.0))
same,Degree of modulation: runt-related transcription factor 2,SW480 cells,− (moderate down-regulation (log^2 ratio of between −0.5 and −1.0))
same,Degree of modulation: sal-like 4 (Drosophila),SW480 cells,+ (moderate up-regulation (log^2 ratio of between 0.5 and 1.0))
same,Degree of modulation: sex comb on midleg-like 1 (Drosophila),SW480 cells,− (moderate down-regulation (log^2 ratio of between −0.5 and −1.0))
same,Degree of modulation: snail homolog 2 (Drosophila),SW480 cells,++ (strong up-regulation (log^2 ratio of between 1.0 and 1.5))
same,Degree of modulation: topoisomerase (DNA) II alpha 170 kDa,SW480 cells,− (moderate down-regulation (log^2 ratio of between −0.5 and −1.0))
same,"Degree of modulation: tumor necrosis factor receptor superfamily, member 19",SW480 cells,− (moderate down-regulation (log^2 ratio of between −0.5 and −1.0))
same,activity at 10 µM,MLK1(h),99%
same,activity at 10 µM,c-RAF(h),98%
same,activity at 10 µM,PTP MEG1(h),92%
same,activity at 10 µM,PTPb(h),106%
